Active and inactive are the calls of the source. The calls are words filed in the database; no cut-off is given here.
What was measured:
[1] = tested on: V79; experiment: Antiproliferative activity against Chinese hamster V79 cells harboring wild type BRCA2 assessed as cell proliferation inhibition incubated for 7 days by SRB assay; format: functional, cell-based; settings: Cricetulus griseus
[2] = Clearance in Sprague-Dawley rat at 5 mg/kg, iv and measured upto 24 hrs; format: ADME, organism-based; settings: in vivo
[3] = tested on: HCT-15; experiment: Antiproliferative activity against HR-deficient human HCT-15 cells harboring BRCA2 mutant assessed as cell proliferation inhibition incubated for 7 days by SRB assay; format: functional, cell-based
[4] = Toxicity in BALB/c mouse xenografted with human Olaparib-resistant MDA-MB-436 cells assessed as body weight at 12.5 to 25 mg/kg,po QD for 27 days; format: organism-based; settings: in vivo, 648 h, dose 12.5-25 mg/kg, time 27 day
[5] = tested on: CAPAN-1; settings: Homo sapiens, dose 10.0 nM, time 4.5 hrs
[6] = tested on: CAPAN-1; experiment: Antiproliferative activity against human Talazoparib-resistant CAPAN-1 cells assessed as cell proliferation inhibition incubated for 7 days by SRB assay; format: functional, cell-based
[7] = biological target: Poly [ADP-ribose] polymerase tankyrase-2 (Homo sapiens, UniProt Q9H2K2); experiment: Inhibition of PARP5B (unknown origin) using biotinylated NAD+ as substrate by luminescence assay
[8] = species: Mus musculus; settings: BALB/c, dose 12.5-25 mg/kg, route po, time 21.0 day
[9] = Stabilization of human His-tagged PARP1-DNA complex assessed as increase in fluorescence signal incubated for 60 mins using NAD+ as substrate by DSB fluorescence polarization assay
[10] = Antitumor activity against human Olaparib-resistant MDA-MB-436 cells xenografted in BALB/c mouse assessed as tumor growth inhibition by measuring T/C ratio at 12.5 mg/kg,po QD for 27 days relative to control; format: functional; parameters: scale not given: the % may be the effect or the level left; settings: time 27 day
[11] = Antiproliferative activity against human Olaparib-resistant MDA-MB-436 cells assessed as cell proliferation inhibition incubated for 7 days by CCK-8 assay; format: functional, cell-based
[12] = Selectivity index, ratio of IC50 for antiproliferative activity against human PARP1 knockout Talazoparib-resistant CAPAN-1 cells to IC50 for antiproliferative activity against human Talazoparib-resistant CAPAN-1 cells; format: functional
[13] = Antiproliferative activity against human UWB1289 cells harboring wild type BRCA1 assessed as cell proliferation inhibition incubated for 7 days by SRB assay; format: functional, cell-based
[14] = biological target: Protein mono-ADP-ribosyltransferase PARP10 (Homo sapiens, UniProt Q53GL7); experiment: Inhibition of PARP10 (unknown origin) using biotinylated NAD+ as substrate by luminescence assay
Sequence of Protein mono-ADP-ribosyltransferase PARP10 (Q53GL7 whole entry): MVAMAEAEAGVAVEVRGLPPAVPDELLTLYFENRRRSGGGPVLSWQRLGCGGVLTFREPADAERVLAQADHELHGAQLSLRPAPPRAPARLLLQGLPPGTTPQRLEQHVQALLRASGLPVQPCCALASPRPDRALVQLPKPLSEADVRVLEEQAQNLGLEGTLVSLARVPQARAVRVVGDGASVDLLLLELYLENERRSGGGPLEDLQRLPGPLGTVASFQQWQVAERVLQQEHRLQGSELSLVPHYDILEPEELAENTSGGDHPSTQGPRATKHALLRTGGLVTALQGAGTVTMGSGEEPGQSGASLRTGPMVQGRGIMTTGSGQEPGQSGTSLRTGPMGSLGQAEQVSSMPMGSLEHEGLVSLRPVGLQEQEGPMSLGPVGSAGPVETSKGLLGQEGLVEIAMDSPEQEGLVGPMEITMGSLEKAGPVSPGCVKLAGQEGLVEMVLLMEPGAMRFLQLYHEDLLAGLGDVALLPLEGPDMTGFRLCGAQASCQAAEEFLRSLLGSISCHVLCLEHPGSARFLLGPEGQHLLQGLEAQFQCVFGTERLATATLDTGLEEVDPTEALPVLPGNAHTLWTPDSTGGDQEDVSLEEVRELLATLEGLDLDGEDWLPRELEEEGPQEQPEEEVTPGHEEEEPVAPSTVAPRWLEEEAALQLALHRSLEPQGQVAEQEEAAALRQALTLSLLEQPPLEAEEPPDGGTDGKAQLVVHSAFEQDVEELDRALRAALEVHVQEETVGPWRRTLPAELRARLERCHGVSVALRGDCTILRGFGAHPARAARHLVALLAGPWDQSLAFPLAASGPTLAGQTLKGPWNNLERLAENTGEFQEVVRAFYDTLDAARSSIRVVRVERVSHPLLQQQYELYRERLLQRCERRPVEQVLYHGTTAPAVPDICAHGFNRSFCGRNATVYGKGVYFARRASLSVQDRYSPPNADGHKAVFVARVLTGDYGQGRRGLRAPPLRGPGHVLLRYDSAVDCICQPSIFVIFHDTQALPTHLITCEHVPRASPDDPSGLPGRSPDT

[15] = biological target: Protein mono-ADP-ribosyltransferase PARP3 (Homo sapiens, UniProt Q9Y6F1); experiment: Inhibition of PARP3 (unknown origin) using biotinylated NAD+ as substrate by luminescence assay
Sequence of Protein mono-ADP-ribosyltransferase PARP3 (Q9Y6F1 whole entry): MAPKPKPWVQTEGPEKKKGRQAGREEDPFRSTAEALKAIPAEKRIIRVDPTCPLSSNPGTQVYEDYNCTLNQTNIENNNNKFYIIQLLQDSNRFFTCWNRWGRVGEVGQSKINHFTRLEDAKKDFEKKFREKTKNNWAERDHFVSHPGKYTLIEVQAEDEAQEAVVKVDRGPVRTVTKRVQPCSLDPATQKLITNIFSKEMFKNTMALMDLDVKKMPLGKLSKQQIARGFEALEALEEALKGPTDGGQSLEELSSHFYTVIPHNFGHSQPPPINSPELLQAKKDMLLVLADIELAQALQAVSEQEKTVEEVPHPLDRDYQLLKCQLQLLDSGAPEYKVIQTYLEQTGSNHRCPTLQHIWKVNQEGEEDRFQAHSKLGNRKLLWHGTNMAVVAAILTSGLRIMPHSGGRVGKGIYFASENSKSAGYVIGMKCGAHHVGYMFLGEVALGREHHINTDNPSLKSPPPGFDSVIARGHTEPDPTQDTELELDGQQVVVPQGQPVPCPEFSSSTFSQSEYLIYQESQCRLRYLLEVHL

[16] = tested on: U2OS; experiment: Inhibition of homologous recombination repair activity in human PARP1 knockout U2OS cells expressing direct repeat-GFP reporter gene transfected with pCBA-ISceI plasmid at 1 uM incubated for 48 hrs by flow cytometry; format: functional
[17] = biological target: Protein mono-ADP-ribosyltransferase PARP6 (Homo sapiens, UniProt Q2NL67); experiment: Inhibition of PARP6 (unknown origin) using biotinylated NAD+ as substrate by luminescence assay
[18] = tested on: U2OS; experiment: Inhibition of homologous recombination repair activity in human U2OS cells expressing direct repeat-GFP reporter gene transfected with pCBA-ISceI plasmid at 1 uM incubated for 48 hrs by flow cytometry; format: functional
[19] = Selectivity index, ratio of IC50 for antiproliferative activity against Chinese hamster V79 cells harboring wild type BRCA2 to IC50 for antiproliferative activity against Chinese hamster V-C8 cells harboring BRCA2 mutant; format: functional, Cricetulus griseus
[20] = Half life in Sprague-Dawley rat at 5 mg/kg, iv and measured upto 24 hrs; format: ADME, organism-based; settings: in vivo
[21] = species: Mus musculus; settings: BALB/c, dose 12.5-25 mg/kg, route po, time 21.0 day; remark: listed apart in the source
[22] = Antiproliferative activity against HR-deficient human UWB1289 cells harboring BRCA1 mutant assessed as cell proliferation inhibition incubated for 7 days by SRB assay; format: functional, cell-based
[23] = tested on: HCC1937; experiment: Antiproliferative activity against HR-deficient human HCC1937 cells harboring BRCA1 mutant assessed as cell proliferation inhibition incubated for 7 days by SRB assay; format: functional, cell-based
[24] = biological target: Poly [ADP-ribose] polymerase 2 (Homo sapiens, UniProt Q9UGN5); experiment: Inhibition of PARP2 (unknown origin) using histone as substrate by ELISA
Sequence of Poly [ADP-ribose] polymerase 2 (Q9UGN5 whole entry): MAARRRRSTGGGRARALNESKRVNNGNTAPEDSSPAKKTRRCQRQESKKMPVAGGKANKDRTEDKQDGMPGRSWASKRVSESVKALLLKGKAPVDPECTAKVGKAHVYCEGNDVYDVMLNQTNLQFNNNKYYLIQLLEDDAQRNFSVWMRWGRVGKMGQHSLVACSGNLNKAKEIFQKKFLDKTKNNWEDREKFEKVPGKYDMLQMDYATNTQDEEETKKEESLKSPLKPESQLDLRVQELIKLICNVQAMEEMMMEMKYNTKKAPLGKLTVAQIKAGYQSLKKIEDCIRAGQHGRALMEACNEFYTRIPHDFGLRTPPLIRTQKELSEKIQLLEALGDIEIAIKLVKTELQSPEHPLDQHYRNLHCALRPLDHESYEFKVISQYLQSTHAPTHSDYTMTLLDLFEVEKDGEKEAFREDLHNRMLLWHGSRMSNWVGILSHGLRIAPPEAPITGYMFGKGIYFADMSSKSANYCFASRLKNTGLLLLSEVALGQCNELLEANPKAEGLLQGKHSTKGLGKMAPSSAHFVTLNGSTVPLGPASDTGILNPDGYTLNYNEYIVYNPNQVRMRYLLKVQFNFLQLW

[25] = biological target: Protein mono-ADP-ribosyltransferase PARP4 (Homo sapiens, UniProt Q9UKK3); experiment: Inhibition of PARP4 (unknown origin) using biotinylated NAD+ as substrate by luminescence assay
[26] = Antiproliferative activity against human Olaparib-resistant CAPAN-1 cells assessed as cell proliferation inhibition incubated for 7 days by SRB assay; format: functional, cell-based
[27] = Antitumor activity against human Olaparib-resistant MDA-MB-436 cells xenografted in BALB/c mouse assessed as tumor growth inhibition by measuring T/C ratio at 25 mg/kg,po QD for 27 days relative to control; format: functional; parameters: scale not given: the % may be the effect or the level left; settings: time 27 day
[28] = Antiproliferative activity against Chinese hamster V-C8 cells harboring BRCA2 mutant assessed as cell proliferation inhibition incubated for 7 days by SRB assay; format: functional, cell-based; settings: Cricetulus griseus
[29] = biological target: Poly [ADP-ribose] polymerase 1 (Homo sapiens, UniProt P09874); experiment: Inhibition of PARP1 (unknown origin) using histone as substrate by ELISA
[30] = tested on: CAPAN-1; experiment: Antiproliferative activity against human CAPAN-1 cells assessed as cell proliferation inhibition incubated for 7 days by SRB assay; format: functional, cell-based
[31] = species: Mus musculus; settings: BALB/c, dose 12.5-25 mg/kg, route po, time 21.0 day; remark: listed apart in the source
[32] = Selectivity index, ratio of IC50 for antiproliferative activity against human UWB1289 cells harboring wild type BRCA1 to IC50 for antiproliferative activity against HR-deficient human UWB1289 cells harboring BRCA1 mutant; format: functional
[33] = tested on: U-251; experiment: Antiproliferative activity against human Talazoparib-resistant U-251 cells assessed as cell proliferation inhibition incubated for 7 days by SRB assay; format: functional, cell-based
[34] = Antiproliferative activity against human Olaparib-resistant U-251 cells assessed as cell proliferation inhibition incubated for 7 days by SRB assay; format: functional, cell-based
[35] = biological target: Poly [ADP-ribose] polymerase tankyrase-1 (Homo sapiens, UniProt O95271)
[36] = Antiproliferative activity against human Talazoparib-resistant MDA-MB-436 cells assessed as cell proliferation inhibition incubated for 7 days by CCK-8 assay; format: functional, cell-based, Talazoparib-resistant MDA-MB-436 cell
[37] = tested on: CAPAN-1; settings: Homo sapiens, dose 10.0 nM, time 4.5 hrs; remark: listed apart in the source
[38] = tested on: WI-38; experiment: Antiproliferative activity against human WI-38 cells assessed as cell proliferation inhibition incubated for 7 days by SRB assay; format: functional, cell-based
[39] = tested on: CAPAN-1; experiment: Antitumor activity against human Talazoparib-resistant CAPAN-1 cells xenografted in BALB/c mouse assessed as tumor growth inhibition by measuring T/C ratio at 25 mg/kg,po QD for 21 days relative to control; format: functional; parameters: scale not given: the % may be the effect or the level left; settings: time 21 day
[40] = biological target: Protein mono-ADP-ribosyltransferase PARP14 (Homo sapiens, UniProt Q460N5); experiment: Inhibition of PARP14 (unknown origin) using biotinylated NAD+ as substrate by luminescence assay
Sequence of Protein mono-ADP-ribosyltransferase PARP14 (Q460N5 whole entry): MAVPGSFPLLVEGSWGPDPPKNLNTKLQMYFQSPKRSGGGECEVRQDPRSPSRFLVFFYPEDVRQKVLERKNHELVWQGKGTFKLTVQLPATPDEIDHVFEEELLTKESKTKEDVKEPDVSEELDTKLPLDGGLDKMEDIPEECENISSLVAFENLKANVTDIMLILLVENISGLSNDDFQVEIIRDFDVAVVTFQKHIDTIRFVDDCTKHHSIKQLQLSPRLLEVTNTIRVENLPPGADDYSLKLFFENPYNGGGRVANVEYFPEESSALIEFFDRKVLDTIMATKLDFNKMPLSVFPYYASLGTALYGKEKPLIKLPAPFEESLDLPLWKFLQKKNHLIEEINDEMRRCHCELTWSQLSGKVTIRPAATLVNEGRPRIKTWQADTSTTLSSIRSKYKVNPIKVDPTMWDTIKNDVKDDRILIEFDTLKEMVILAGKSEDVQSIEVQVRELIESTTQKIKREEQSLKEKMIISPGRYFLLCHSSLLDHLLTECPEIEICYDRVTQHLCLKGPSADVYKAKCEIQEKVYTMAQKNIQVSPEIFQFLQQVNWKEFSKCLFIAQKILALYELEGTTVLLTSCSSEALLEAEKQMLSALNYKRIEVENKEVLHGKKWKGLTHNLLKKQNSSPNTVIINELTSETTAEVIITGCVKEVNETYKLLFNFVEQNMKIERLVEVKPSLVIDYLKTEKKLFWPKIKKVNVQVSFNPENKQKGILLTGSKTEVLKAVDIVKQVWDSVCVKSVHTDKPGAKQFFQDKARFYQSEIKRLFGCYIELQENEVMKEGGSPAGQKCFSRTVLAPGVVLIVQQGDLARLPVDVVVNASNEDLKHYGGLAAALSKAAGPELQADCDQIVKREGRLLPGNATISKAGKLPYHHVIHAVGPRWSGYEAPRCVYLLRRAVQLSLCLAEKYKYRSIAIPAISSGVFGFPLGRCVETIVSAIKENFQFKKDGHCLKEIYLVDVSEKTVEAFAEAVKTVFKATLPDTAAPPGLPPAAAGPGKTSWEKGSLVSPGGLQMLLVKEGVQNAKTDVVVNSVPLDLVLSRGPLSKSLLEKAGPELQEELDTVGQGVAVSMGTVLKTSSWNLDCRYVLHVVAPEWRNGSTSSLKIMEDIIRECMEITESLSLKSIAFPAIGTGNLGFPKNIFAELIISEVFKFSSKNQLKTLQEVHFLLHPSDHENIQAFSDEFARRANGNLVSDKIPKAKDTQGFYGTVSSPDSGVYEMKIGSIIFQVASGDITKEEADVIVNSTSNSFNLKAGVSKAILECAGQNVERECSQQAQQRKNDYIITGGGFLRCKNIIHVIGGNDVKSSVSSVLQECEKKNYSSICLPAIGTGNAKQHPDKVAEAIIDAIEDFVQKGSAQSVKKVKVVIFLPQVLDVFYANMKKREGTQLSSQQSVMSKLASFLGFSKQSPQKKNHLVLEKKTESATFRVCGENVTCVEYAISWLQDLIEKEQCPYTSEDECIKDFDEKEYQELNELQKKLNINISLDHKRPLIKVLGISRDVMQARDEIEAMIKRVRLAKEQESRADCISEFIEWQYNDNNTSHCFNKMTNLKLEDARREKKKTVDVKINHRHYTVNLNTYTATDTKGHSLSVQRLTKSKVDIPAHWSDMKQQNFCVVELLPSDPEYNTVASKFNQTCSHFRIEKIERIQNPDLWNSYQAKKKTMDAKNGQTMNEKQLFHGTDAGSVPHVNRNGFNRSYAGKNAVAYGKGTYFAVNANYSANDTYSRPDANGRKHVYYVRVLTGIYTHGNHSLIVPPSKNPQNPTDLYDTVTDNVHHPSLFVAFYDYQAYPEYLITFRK

[41] = biological target: Protein mono-ADP-ribosyltransferase TIPARP (Homo sapiens, UniProt Q7Z3E1); experiment: Inhibition of PARP7 (unknown origin) using biotinylated NAD+ as substrate by luminescence assay
[42] = biological target: Protein mono-ADP-ribosyltransferase PARP12 (Homo sapiens, UniProt Q9H0J9); experiment: Inhibition of PARP12 (unknown origin) using biotinylated NAD+ as substrate by luminescence assay
Sequence of Protein mono-ADP-ribosyltransferase PARP12 (Q9H0J9 whole entry): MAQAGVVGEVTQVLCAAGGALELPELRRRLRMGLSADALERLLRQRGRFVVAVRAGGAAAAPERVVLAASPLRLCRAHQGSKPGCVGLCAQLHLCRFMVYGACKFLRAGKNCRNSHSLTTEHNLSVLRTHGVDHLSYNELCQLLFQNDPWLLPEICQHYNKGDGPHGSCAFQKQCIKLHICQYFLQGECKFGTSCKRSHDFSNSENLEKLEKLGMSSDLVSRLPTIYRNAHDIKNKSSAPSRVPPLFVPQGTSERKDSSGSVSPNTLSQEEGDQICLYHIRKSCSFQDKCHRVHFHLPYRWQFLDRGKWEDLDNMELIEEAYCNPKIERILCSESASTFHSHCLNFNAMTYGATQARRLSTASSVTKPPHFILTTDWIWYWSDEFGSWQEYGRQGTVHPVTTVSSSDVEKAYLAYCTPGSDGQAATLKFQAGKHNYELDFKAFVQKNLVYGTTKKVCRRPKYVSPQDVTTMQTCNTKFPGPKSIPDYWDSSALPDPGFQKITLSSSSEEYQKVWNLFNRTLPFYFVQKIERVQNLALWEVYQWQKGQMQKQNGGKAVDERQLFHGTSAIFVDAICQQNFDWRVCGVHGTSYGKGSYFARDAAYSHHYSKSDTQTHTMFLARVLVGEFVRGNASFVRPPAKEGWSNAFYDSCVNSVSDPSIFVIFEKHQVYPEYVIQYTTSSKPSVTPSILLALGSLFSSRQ

[43] = biological target: Protein mono-ADP-ribosyltransferase PARP15 (Homo sapiens, UniProt Q460N3); experiment: Inhibition of PARP15 (unknown origin) using biotinylated NAD+ as substrate by luminescence assay
[44] = tested on: CAPAN-1; experiment: Antitumor activity against human Talazoparib-resistant CAPAN-1 cells xenografted in BALB/c mouse assessed as tumor growth inhibition by measuring T/C ratio at 12.5 mg/kg,po QD for 21 days relative to control; format: functional; parameters: scale not given: the % may be the effect or the level left; settings: time 21 day
[45] = tested on: IMR-90; experiment: Antiproliferative activity against human IMR-90 cells assessed as cell proliferation inhibition incubated for 7 days by SRB assay; format: functional, cell-based
[46] = biological target: Protein mono-ADP-ribosyltransferase PARP11 (Homo sapiens, UniProt Q9NR21); experiment: Inhibition of PARP11 (unknown origin) using biotinylated NAD+ as substrate by luminescence assay
Sequence of Protein mono-ADP-ribosyltransferase PARP11 (Q9NR21 whole entry): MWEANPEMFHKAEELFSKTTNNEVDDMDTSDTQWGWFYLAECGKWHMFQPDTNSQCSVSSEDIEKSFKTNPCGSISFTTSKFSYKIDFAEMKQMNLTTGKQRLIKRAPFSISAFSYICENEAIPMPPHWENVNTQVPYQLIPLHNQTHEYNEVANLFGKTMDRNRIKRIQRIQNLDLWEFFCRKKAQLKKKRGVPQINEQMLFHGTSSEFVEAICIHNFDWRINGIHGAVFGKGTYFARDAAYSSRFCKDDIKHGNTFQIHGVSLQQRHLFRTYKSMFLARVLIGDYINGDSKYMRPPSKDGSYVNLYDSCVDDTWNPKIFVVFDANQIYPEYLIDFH

[47] = tested on: MDA-MB-436; experiment: Antiproliferative activity against HR-deficient human MDA-MB-436 cells harboring BRCA1 mutant assessed as cell proliferation inhibition incubated for 7 days by SRB assay; format: functional, cell-based

`O=C(c1cc(Cc2n[nH]c(=O)c3ccccc23)ccc1F)N1CCn2c(nnc2-c2ccc(Br)o2)C1` gave an IC50 [1] of 29.3 nM, a clearance [2] of 24.5 mL/min/kg and an IC50 [3] of 44.2 nM. For the same compound, the Activity [4] was “Non-Toxic”, the inhibition [5] was “Active” and the IC50 [6] was 1.13 nM. The IC50 [7] was 12.4 nM, the inhibition [8] was “Active” and the EC50 [9] was 5.55 nM. The Activity [10] was 36.74%, the IC50 [11] was 1.97 nM and the “Ratio IC50” value [12] was 19. The IC50 [13] was 0.34 nM, the IC50 [14] was 10.8 nM and the IC50 [15] was 1.1 nM. For the same compound, the “inhibition (INH)” value [16] was 50%, the IC50 [17] was 9.5 nM and the “inhibition (INH)” value [18] was 95%. For the same compound, the “Ratio IC50” value [19] was 25, the half-life [20] was 3.25 h and the inhibition [21] was “Active”. It also gave an IC50 [22] of 0.02 nM, an IC50 [23] of 4.54 nM and an IC50 [24] of 0.001 nM. For the same compound, the IC50 [25] was 1 nM, the IC50 [26] was 0.89 nM and the Activity [27] was 15.29%. The IC50 [28] was 1.19 nM, the IC50 [29] was under 0.001 nM and the IC50 [30] was 0.1 nM. The inhibition [31] was “Active”, the “Ratio IC50” value [32] was 17 and the IC50 [33] was 1.97 nM. For the same compound, the IC50 [34] was 1.97 nM, the IC50 [35] was 3.8 nM and the IC50 [36] was 1.97 nM. The inhibition [37] was “Active”, the IC50 [38] was 530 nM and the Activity [39] was 13.87%. It also gave an IC50 [40] of 35900 nM, an IC50 [41] of 7.3 nM and an IC50 [42] of 14.1 nM. It also gave an IC50 [43] of 51600 nM, an Activity [44] of 48.92% and an IC50 [45] of 1240 nM. The IC50 [46] was 2170 nM and the IC50 [47] was 0.52 nM.
